Results published in patent publication US20220389019A1, “TrkB POSITIVE ALLOSTERIC MODULATORS” (Université de Strasbourg, priority 2019, published 2022).

Assays:
TrkB [1] = experiment: TrkB phosphorylation assay: potentiation of BDNF-induced TrkB phosphorylation in cortical neurons; assay type: cell-based; details: potentation at a PAM concentration of 10 nM of 0.4 nM BDNF-induced TrkB phosphorylation in cortical neurons
Source text: It is meant by “positive allosteric modulator” (PAM), also known as allosteric enhancer or potentiator, a compound that induces an amplification of the effect of receptor's response to the primary ligand without directly activating the receptor. Within this invention, PAM TrkB activity is related to the potentation of BDNF effects on the functional activity of the TrkB receptor, measured in vitro or in vivo by mean of a specific TrkB receptor phosphorylation assay.
In Vitro Activity of LIT-TB Derivatives in a TrkB Phosphorylation Assay

PC12-TrkB cells = details: BDNF, 48 hours
Protocol: (§1) Nnr5 PC12-TrkA and nnr5 PC12-TrkB cells are NGF-nonresponding mutant PC12 cells stably transfected with TrkA and TrkB, respectively. Activation of TrkA and TrkB was assessed in nnr5 PC12-TrkB or -TrkA cells by quantifying the level of phospho-Trk at Tyrosine 706 (Y706) after addition of BDNF (1 nM) or NGF (2 nM), respectively, for 15 min in presence or absence of TB001 at various concentrations (0.1, 10 and […]), as previously done. Activation of downstream signaling pathway was assessed by quantifying phospho-ERK in the same cells. Neurite outgrowth was determined by counting the number the number of cells bearing neurites longer than 2 cells in diameter, 48 hours after initial treatment, as described earlier.
(§2) Selectivity of LIT-TB001 toward signaling activation and biological function was tested in PC12-TrkB or PC12-TrkA cells, in presence of BDNF (TrkB) or NGF (TrkA). Key experiments were recapitulated in either TrkA or TrkB-expressing cells to test for TB selectivity: Trk phosphorylation, ERK phosphorylation and neurite outgrowth (FIG. 1).

TrkB [2] = target: TrkB (Homo sapiens, UniProt Q16620); details: PC12-TrkB cells, BDNF 1 nM
TrkB (Homo sapiens, UniProt Q16620), sequence (Q16620 32-822, species assumed): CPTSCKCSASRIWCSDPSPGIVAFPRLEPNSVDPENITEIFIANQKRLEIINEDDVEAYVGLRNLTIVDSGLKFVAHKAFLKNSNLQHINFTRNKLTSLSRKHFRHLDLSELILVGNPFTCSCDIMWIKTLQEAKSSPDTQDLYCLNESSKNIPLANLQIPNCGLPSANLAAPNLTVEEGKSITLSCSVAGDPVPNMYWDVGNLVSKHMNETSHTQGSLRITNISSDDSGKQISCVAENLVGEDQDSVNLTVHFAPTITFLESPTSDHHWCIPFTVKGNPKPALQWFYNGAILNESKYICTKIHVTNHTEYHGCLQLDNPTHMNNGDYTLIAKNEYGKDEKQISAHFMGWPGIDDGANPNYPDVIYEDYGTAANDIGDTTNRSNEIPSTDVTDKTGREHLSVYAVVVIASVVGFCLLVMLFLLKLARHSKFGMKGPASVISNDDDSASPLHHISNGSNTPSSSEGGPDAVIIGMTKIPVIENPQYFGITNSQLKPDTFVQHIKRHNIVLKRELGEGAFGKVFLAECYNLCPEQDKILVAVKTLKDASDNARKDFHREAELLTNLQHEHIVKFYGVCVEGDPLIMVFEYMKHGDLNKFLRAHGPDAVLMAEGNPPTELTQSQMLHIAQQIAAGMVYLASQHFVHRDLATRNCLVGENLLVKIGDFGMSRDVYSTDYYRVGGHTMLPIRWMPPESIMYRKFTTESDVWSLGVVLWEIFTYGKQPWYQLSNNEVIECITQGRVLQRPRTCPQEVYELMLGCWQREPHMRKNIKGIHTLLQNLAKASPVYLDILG
Protocol: as §1, §2

TrkA = TrkA (Homo sapiens, UniProt P04629); details: PC12-TrkA cells, presence or absence of NGF (2 nM)
TrkA, sequence (P04629 33-796, species assumed): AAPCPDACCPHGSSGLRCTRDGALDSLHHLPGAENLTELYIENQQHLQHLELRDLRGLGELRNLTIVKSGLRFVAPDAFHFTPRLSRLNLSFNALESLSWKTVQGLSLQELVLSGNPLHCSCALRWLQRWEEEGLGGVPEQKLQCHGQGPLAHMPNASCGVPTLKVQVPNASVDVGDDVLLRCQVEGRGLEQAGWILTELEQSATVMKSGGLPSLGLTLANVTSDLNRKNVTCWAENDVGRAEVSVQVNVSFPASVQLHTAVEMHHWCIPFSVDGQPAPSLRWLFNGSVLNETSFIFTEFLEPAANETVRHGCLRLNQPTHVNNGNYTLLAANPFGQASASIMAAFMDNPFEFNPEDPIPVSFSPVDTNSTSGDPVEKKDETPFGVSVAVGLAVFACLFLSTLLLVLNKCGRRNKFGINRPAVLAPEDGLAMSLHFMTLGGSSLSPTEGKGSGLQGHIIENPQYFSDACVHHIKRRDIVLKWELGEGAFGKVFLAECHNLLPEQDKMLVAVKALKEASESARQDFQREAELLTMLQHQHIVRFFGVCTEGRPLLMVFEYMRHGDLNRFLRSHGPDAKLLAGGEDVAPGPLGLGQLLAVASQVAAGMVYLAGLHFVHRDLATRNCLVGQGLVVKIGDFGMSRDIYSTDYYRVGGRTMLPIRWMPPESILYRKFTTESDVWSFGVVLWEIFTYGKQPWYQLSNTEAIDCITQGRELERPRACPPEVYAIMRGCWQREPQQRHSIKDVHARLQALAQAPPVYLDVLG
Protocol: as §1, §2

TrkB [3] = target: TrkB (Mus musculus, UniProt P15209); details: C57BL/6 male mice, 0.5 and 1 mg/kg i.p., 1 h, cortex and hippocampus, western blot
TrkB (Mus musculus, UniProt P15209), sequence (P15209 32-821): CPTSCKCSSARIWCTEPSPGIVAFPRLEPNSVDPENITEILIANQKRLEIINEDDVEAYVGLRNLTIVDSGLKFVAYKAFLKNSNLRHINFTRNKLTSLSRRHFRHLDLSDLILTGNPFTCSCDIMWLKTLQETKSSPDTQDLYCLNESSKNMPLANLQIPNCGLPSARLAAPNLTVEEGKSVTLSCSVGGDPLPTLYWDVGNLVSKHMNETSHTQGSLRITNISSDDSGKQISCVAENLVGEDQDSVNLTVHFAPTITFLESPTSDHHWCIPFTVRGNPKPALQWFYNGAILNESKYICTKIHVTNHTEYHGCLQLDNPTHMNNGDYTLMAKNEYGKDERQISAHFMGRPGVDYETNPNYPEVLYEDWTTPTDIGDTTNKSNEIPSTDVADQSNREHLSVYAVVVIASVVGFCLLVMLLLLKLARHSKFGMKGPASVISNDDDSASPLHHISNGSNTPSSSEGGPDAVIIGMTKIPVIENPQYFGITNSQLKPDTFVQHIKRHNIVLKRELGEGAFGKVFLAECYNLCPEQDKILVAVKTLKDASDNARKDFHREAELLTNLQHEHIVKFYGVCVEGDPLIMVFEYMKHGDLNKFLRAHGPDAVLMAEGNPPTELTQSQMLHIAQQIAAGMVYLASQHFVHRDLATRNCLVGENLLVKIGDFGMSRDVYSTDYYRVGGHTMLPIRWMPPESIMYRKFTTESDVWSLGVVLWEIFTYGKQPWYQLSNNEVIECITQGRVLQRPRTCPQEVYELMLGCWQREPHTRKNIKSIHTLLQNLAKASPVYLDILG
Protocol: After 1 hour (unless indicated otherwise), mice were decapitated, blood was collected and brains were rapidly removed on ice. […] The Anti-TrkB antibody is used to quantify the total amount of TrkB. Anti-tubulin is used as a loading control. […] Phosphorylated levels of TrkB are calculated as a ratio between phospho and total TrkB bands in each region
A volume of 10 μl/g body weight was injected. After 1 hour (unless indicated otherwise), mice were decapitated, blood was collected and brains were rapidly removed on ice. Cortex and hippocampus were subsequently dissected and tissues were rapidly washed in ice-cold PBS and transferred into ice-cold solubilization buffer before homogenization at 4° C. Samples were centrifuged at 10,000×g for 10 min at 4° C. Protein concentrations were determined, equal amounts of proteins were loaded, and western blots were performed as described above.
C57Bl6 male mice received an i.p injection of 0.5 and 1 mg/kg for 1 hour before their brain was carefully removed and their cortex and hippocampus were sub-dissected. […] The level of TrkB phosphorylation at Tyrosine 816 was analyzed by western blot (FIG. 3).

45 kinases = experiment: Kinome profile (ExpresS Diversity Kinase Panel, TR-FRET LANCE); assay type: biochemical; details: 10 μM
Protocol: FIG. 2 represents the […] inhibition of the catalytic activity of 45 kinases (ExpresS Diversity Kinase Panel, Eurofins Discovey, item # P10) by LIT-TB001 at a concentration of 10 μM. For each kinase, the effect of the compound on the ATP-induced kinase-mediated substrate phosphorylation is measured by the TR-FRET LANCE technology.
A kinome profile was next performed to test LIT-TB001 selectivity toward other kinases.

Compound: CN1CCN(c2ccc3nnc(CCC(=O)NC4CCN(Cc5ccccc5F)CC4)n3n2)CC1 [LIT-TB022, N-{1-[(2-fluorophenyl)methyl]piperidin-4-yl}-3-[6-(4-methylpiperazin-1-yl)-[1,2,4]triazolo[4,3-b]pyridazin-3-yl]propanamide]
- PAM TrkB activity (TrkB [1]): +++ (+++: >35%)

Compound: CN1CCN(c2ccc3nnc(CCC(=O)NC4CCN(Cc5ccccc5)C(=O)C4)n3n2)CC1 (stereo not drawn) [LIT-TB033, N-(1-benzyl-2-oxopiperidin-4-yl)-3-[6-(4-methylpiperazin-1-yl)-[1,2,4]triazolo[4,3-b]pyridazin-3-yl]propanamide]
- PAM TrkB activity (TrkB [1]): + (+: <20%)

Compound: COc1ccc(CN2CC[C@H](NC(=O)CCc3nnc4ccc(N5CCN(C)CC5)nn34)[C@@H](F)C2)cc1 [LIT-TB052, N-[(3S,4S)-3-fluoro-1-[(4-methoxyphenyl)methyl]piperidin-4-yl]-3-[6-(4-methylpiperazin-1-yl)-[1,2,4]triazolo[4,3-b]pyridazin-3-yl]propanamide]
- PAM TrkB activity (TrkB [1]): +++ (+++: >35%)

Compound: CN1CCN(c2ccc3nnc(CCC(=O)NC4CCN(Cc5ccccc5)CC4)n3n2)CC1 [LIT-TB001, N-(1-benzylpiperidin-4-yl)-3-[6-(4-methylpiperazin-1-yl)-[1,2,4]triazolo[4,3-b]pyridazin-3-yl] propanamide]
- PAM TrkB activity (TrkB [1]): +++ (+++: >35%)
- neurite outgrowth (PC12-TrkB cells): potentiates BDNF-
- phosphorylation of ERK (TrkB [2]): induced only in the presence of BDNF
- phosphorylation of TrkB (TrkB [2]; 15 min): induced only in the presence of BDNF
- phosphorylation of ERK (TrkA): did not induce phosphorylation of ERK or TrkA
- phosphorylation of TrkA (TrkA): did not induce phosphorylation of ERK or TrkA
- TrkB activation (phospho-TrkB/total TrkB) in the brain (TrkB [3]): efficiently increases TrkB activation in the brain
- effect on catalytic activity of 45 kinases (among them TrkA) (45 kinases): does not activate neither block the catalytic activity of the tested kinases

Compound: CN1CCN(c2ccc3nnc(CCC(=O)NC4CCN(Cc5ccccc5Cl)CC4)n3n2)CC1 [LIT-TB019, N-{1-[(2-chlorophenyl)methyl]piperidin-4-yl}-3-[6-(4-methylpiperazin-1-yl)-[1,2,4]triazolo[4,3-b]pyridazin-3-yl]propanamide]
- PAM TrkB activity (TrkB [1]): +++ (+++: >35%)
